Source: PubChem BioAssay (NCI)
“And” between values parts separate entries of the source, which are not always exact repeats. Equal entries are not always repeated.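 A five-concentration, 48-hour dose response in 96-well plates underlies each endpoint, interpolated linearly between surrounding concentrations. GI50 = concentration required for 50% inhibition of growth. At the TGI there is no net growth.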

Legend:
Assay in all cases: inhibition of tumour cell growth, NCI panel, 48 h
[1] = tested on: SF-268 CNS
[2] = tested on: SN12C renal
[3] = tested on: SNB-75 CNS
[4] = tested on: RPMI-8226 leukemia
[5] = tested on: K-562 leukemia
[6] = tested on: HOP-62 NSCLC
[7] = tested on: HCT-15 colon
[8] = tested on: UO-31 renal
[9] = tested on: RXF 393 renal
[10] = tested on: TK-10 renal

SMILES	TGI [1]	GI50 [2]	TGI [2]	GI50 [3]	TGI [3]	TGI [4]	GI50 [5]	TGI [5]	TGI [6]	TGI [7]	GI50 [8]	TGI [8]	TGI [9]	TGI [10]	GI50 [1]	GI50 [4]	GI50 [6]	GI50 [7]	GI50 [9]	GI50 [10]
CCCCCCCCCCCCCCCCOP(=O)(O)OP(=O)(O)OCC1OC(n2ccc(N)nc2=O)C(O)C1O (stereo not drawn)	> 100 µM	> 100 µM and 19.4 µM	> 100 µM	> 100 µM	> 100 µM	> 100 µM	> 100 µM and 41.8 µM	> 100 µM	> 100 µM	> 100 µM	> 100 µM and 21.8 µM	> 100 µM	> 100 µM	> 100 µM	–	–	–	–	–	–
COc1ccc2c(c1OC)OCC(CN(C)C)C2=O (stereo not drawn)	53.2 µM	–	34 µM	–	52.4 µM	8.56 µM	–	10.5 µM	> 88.7 µM	36.5 µM	–	32.5 µM	30.5 µM	34.4 µM	–	–	–	–	–	–
CC1=C([Te]c2ccc(O)cc2)C(=O)c2ccccc2C1=O	9.03 µM	2.29 µM	9.33 µM	1.31 µM	9.02 µM	4.51 µM	1.93 µM	4.36 µM	5.15 µM	4.31 µM	1.56 µM	4.98 µM	9.46 µM	7.6 µM	2.63 µM	1.16 µM	0.9 µM	1.01 µM	2.42 µM	2.67 µM
CCN(CC)CCCC(C)N=c1cc(Nc2cc(=NC(C)CCCN(CC)CC)c3cc(OC)ccc3o2)oc2ccc(OC)cc12 (stereo not drawn)	8.72 µM	1.4 µM	11.8 µM	0.829 µM	2.93 µM	3.41 µM	1.19 µM	4.76 µM	2.16 µM	2.33 µM	0.874 µM	4.9 µM	1.17 µM	3.22 µM	2.15 µM	1.24 µM	0.734 µM	0.851 µM	0.528 µM	1.3 µM
CCc1ccc2c(c1)N(CCO)C1=C(C(=O)OC1)C2c1cccc(Cl)c1 (stereo not drawn)	17.2 µM	2.03 µM	19 µM	0.395 µM	14.6 µM	52.6 µM	0.485 µM	23.9 µM	15.8 µM	17.9 µM	2.52 µM	20.9 µM	3.57 µM	28.8 µM	0.975 µM	3.38 µM	0.774 µM	0.605 µM	0.378 µM	6.69 µM
CCCCN(CCCC)CCCn1c(=O)c2c3ccccc3n(C)c2n2nnc(-c3ccccc3)c12	> 100 µM	19.4 µM	94.8 µM	15.1 µM	56.2 µM	49.4 µM	13.9 µM	> 100 µM	> 100 µM	> 100 µM	6.06 µM	46.8 µM	43 µM	22.4 µM	> 100 µM	6 µM	30.6 µM	20.7 µM	14.1 µM	1.9 µM
O=C1c2ccccc2C(=O)N1C/C=C/CO	> 100 µM	–	> 100 µM	–	> 100 µM	> 100 µM	–	> 100 µM	> 100 µM	> 100 µM	–	> 100 µM	> 100 µM	> 100 µM	–	–	–	–	–	–
COC(=O)/C=C/c1cn(C(C)=O)c2ccc(Br)cc12	> 100 µM	31.6 µM	> 100 µM	16.1 µM	55.2 µM	> 100 µM	0.967 µM	> 23 µM	> 73.5 µM	> 100 µM	8.73 µM	48.5 µM	> 100 µM	71.4 µM	26.4 µM	19 µM	25 µM	23.4 µM	26.9 µM	24.7 µM
O=C(Nc1nc2ccc(F)cc2s1)c1cccnc1Nc1ccc(Cl)cc1	> 100 µM	2.63 µM	> 100 µM	2.36 µM	16.1 µM	7.47 µM	0.961 µM	> 100 µM	9.08 µM	> 100 µM	2.36 µM	> 21.5 µM	> 100 µM	> 100 µM	3.68 µM	1.24 µM	2.55 µM	2.74 µM	33.6 µM	5.11 µM
Cc1cc(O)cc(C)c1/C=C/c1cncc(-c2nn[nH]n2)c1	> 25 µM	> 25 µM	> 25 µM	> 25 µM	> 25 µM	> 25 µM	> 25 µM	> 25 µM	> 25 µM	> 25 µM	> 25 µM	> 25 µM	> 25 µM	> 25 µM	> 25 µM	> 25 µM	> 25 µM	> 25 µM	> 25 µM	> 25 µM
COc1ccc(-c2nc(N3CCN(C(=O)C4CCCCC4)CC3)c3c4c(sc3n2)CCCC4)cc1	> 100 µM	> 100 µM	> 100 µM	14.1 µM	33.9 µM	> 100 µM	> 100 µM	> 100 µM	86 µM	> 100 µM	95.4 µM	> 100 µM	53.4 µM	90.8 µM	89 µM	22 µM	27.5 µM	> 100 µM	21.3 µM	34.4 µM
COc1cc(O)c2c(c1)C(=O)c1cc3c(c(O)c1C2=O)C(OC1OC(C)C(O)C(O)C1OC)C(OC)C(C)(O)C3=O (stereo not drawn)	15.2 µM and 40.5 µM	–	7.18 µM and 7.44 µM	2.84 µM	15.7 µM and 10.1 µM	59.6 µM and 30.5 µM	2.24 µM and 12.2 µM	> 100 µM and 72.5 µM	26.1 µM and 9.56 µM	12.2 µM and 7.35 µM	1.87 µM	12.2 µM and 7.13 µM	6.72 µM and 4.38 µM	61.4 µM	2.56 µM	2.46 µM and 9.76 µM	2.92 µM	2.65 µM	1.01 µM	4.29 µM
CCOC(=O)/C(=C(/C)NCC(C)C)c1cc(O)c(O)c2c(C)cc(=O)[nH]c12	> 100 µM	4.96 µM	> 100 µM	3.85 µM	29.8 µM	> 100 µM	6.8 µM	> 100 µM	37 µM	> 100 µM	46.1 µM	> 100 µM	20.4 µM	68.3 µM	4.67 µM	3.5 µM	10.3 µM	2.2 µM	1.18 µM	9.18 µM
O=c1oc2ccc(-n3c(=O)c4ccccc4c4ccccc4c3=O)cc2c2ccccc12	> 100 µM	–	> 100 µM	–	85.7 µM	> 100 µM	–	> 100 µM	> 100 µM	> 100 µM	–	> 100 µM	> 100 µM	> 100 µM	–	–	–	–	–	–
COc1cc(-c2ncn(/C=C\C(=O)OC(C)C)n2)cc(C(F)(F)F)c1	8 µM and 3.58 µM	0.28 µM and 0.314 µM	11.7 µM and 11 µM	0.0748 µM and 0.121 µM	0.999 µM and 0.904 µM	> 36.1 µM and 4.66 µM	0.051 µM and 0.0608 µM	10.2 µM and 16.2 µM	3.46 µM and 3.94 µM	7.93 µM and 6.39 µM	0.0569 µM and 0.0489 µM	4.18 µM and 11.7 µM	0.0824 µM and 0.0725 µM	6.91 µM and 5.42 µM	0.0493 µM and 0.0487 µM	0.036 µM and 0.0286 µM	0.295 µM and 0.262 µM	0.0715 µM and 0.0543 µM	< 0.0139 µM and 0.0146 µM	0.271 µM and 0.123 µM
O=c1c2ccccc2c2ccccc2c(=O)n1Cc1ccc2c(c1)OCO2	> 100 µM	–	> 100 µM	–	> 93.6 µM	> 67.4 µM	–	> 28 µM	> 100 µM	> 100 µM	–	> 100 µM	> 84.2 µM	> 100 µM	–	–	–	–	–	–
COc1ccc2nc3ccccc3c(NCCCN(C)CCCl)c2c1	2.75 µM	–	1.55 µM	–	1.47 µM	1.12 µM	–	2.59 µM	3.05 µM	8.29 µM	–	2.67 µM	1.45 µM	4.08 µM	–	–	–	–	–	–
COc1cc(-c2nn(-c3cccc(NC(=O)c4ccc(N5CCOCC5)c(C(F)(F)F)c4)c3)cc2-c2ccncc2)ccc1Cl	> 48.1 µM	0.709 µM	> 75.8 µM	0.0818 µM	0.572 µM	> 100 µM	0.0555 µM	> 100 µM	> 58.6 µM	> 100 µM	0.322 µM	8.77 µM	0.809 µM	19.5 µM	0.559 µM	0.269 µM	0.524 µM	0.226 µM	0.207 µM	1.22 µM
